Measurements taken from PubChem BioAssay (NCI).
Several values for one entry are separate records, joined by “and”; a condition that tells them apart may be missing. Equal entries are not always repeated.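 Protocol summary: plate cells (96-well), add compound at 5 concentrations, incubate 48 h, interpolate endpoints linearly. The concentration for 50% growth inhibition is given as GI50. TGI: total growth inhibition.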

Tests used:
Assay in all cases: NCI-60 cell line screen, 48 h
TK-10 renal = test system: TK-10 renal
HCT-15 colon = test system: HCT-15 colon
SK-MEL-2 melanoma = test system: SK-MEL-2 melanoma
SW-620 colon = test system: SW-620 colon
LXFL 529 NSCLC = test system: LXFL 529 NSCLC
CAKI-1 renal = test system: CAKI-1 renal
HL-60(TB) leukemia = test system: HL-60(TB) leukemia
NCI-H226 lung = test system: NCI-H226 lung
DMS 273 small cell lung = test system: DMS 273 small cell lung
HS 578T breast = test system: HS 578T breast

| Structure (SMILES) | TGI (TK-10 renal) | TGI (HCT-15 colon) | TGI (SK-MEL-2 melanoma) | TGI (SW-620 colon) | TGI (LXFL 529 NSCLC) | TGI (CAKI-1 renal) | TGI (HL-60(TB) leukemia) | TGI (NCI-H226 lung) | TGI (DMS 273 small cell lung) | GI50 (HS 578T breast) | TGI (HS 578T breast) | GI50 (TK-10 renal) | GI50 (HCT-15 colon) | GI50 (SK-MEL-2 melanoma) | GI50 (SW-620 colon) | GI50 (HL-60(TB) leukemia) | GI50 (LXFL 529 NSCLC) | GI50 (NCI-H226 lung) | GI50 (DMS 273 small cell lung) |
| --- | --- | --- | --- | --- | --- | --- | --- | --- | --- | --- | --- | --- | --- | --- | --- | --- | --- | --- | --- |
| c1ccc(CCCC2Sc3cccc4cccc(c34)S2)cc1 | > 100 µM | > 100 µM | > 100 µM | > 100 µM | > 100 µM | > 100 µM | > 100 µM | > 100 µM | > 100 µM |  |  |  |  |  |  |  |  |  |  |
| CCCCNC(=O)OCC(COc1ccccc1OC)OC(=O)NCCCC (centres undefined) | > 100 µM | > 100 µM | > 100 µM | > 100 µM | > 100 µM | > 100 µM | > 100 µM | > 100 µM | > 100 µM |  |  |  |  |  |  |  |  |  |  |
| S=c1nc[nH]c2nc[nH]c12 | > 100 µM and 549 µM and 332 µM | > 100 µM and 629 µM and > 750 µM | > 100 µM and 664 µM and > 750 µM | > 100 µM and 692 µM and > 750 µM | > 720 µM | > 100 µM and 436 µM and > 750 µM |  | > 100 µM and 676 µM and > 750 µM | 565 µM | 9.62 µM and 30.8 µM | > 100 µM and 561 µM and > 612 µM | 58 µM and 10.2 µM | 3.4 µM and 18.2 µM | > 100 µM and 26.2 µM | 3.97 µM and 15.1 µM | 3.11 µM and 3.31 µM |  |  |  |
| Cc1cc(Cl)ccc1NC(=O)C(=O)Cc1ccc([N+](=O)[O-])c([N+](=O)[O-])c1CC(=O)C(=O)Nc1ccc(Cl)cc1C | > 100 µM | > 100 µM | > 100 µM | > 100 µM | > 100 µM | > 100 µM | > 100 µM | > 100 µM | > 100 µM |  |  |  |  |  |  |  |  |  |  |
| COc1ccc2[nH]c3c(C)c4cc[n+](C)cc4c(C)c3c2c1 | 89.2 µM and > 163 µM | > 100 µM and 110 µM and > 250 µM | 13.8 µM [middle of 4 runs] |  | 3.41 µM |  |  | 1.52 µM and 1.13 µM and 0.572 µM |  |  | 1.13 µM and 0.759 µM | 12.4 µM and 24.3 µM and 5.65 µM |  | 4.87 µM | 0.28 µM | 8.31 µM and 9.67 µM | 0.383 µM | 0.111 µM | 0.502 µM and 0.189 µM |
| CCOc1ccccc1NC(=O)C(=O)C(C(=O)c1ccc2ccccc2c1)C1OC(=O)c2ccccc21 (centres undefined) | 54.8 µM | 33.6 µM | 29.4 µM | 33.8 µM | 19.4 µM | 36.8 µM | 59.3 µM | 7.06 µM | 31.7 µM |  |  |  |  |  |  |  |  |  |  |
| O=C(N[C@@H]1C=CCC[C@@H]1c1ccccc1)OCc1ccccc1 | 24.6 µM | 38.3 µM | 32.4 µM | 50.7 µM | 49.8 µM | 45.1 µM | 34.6 µM | 36.4 µM | 32.4 µM |  |  |  |  |  |  |  |  |  |  |
| CCCCCCCCCCCCC/C=C1\C[C@H](O)COC1=O | 31.8 µM | 32.2 µM | 31.1 µM | 28.8 µM | 29.8 µM | 32.9 µM | 39.9 µM | 32.9 µM | 28 µM |  |  |  |  |  |  |  |  |  |  |
| Cc1ccc(/C=N/NS(=O)(=O)c2ccccc2)cc1 | > 100 µM | > 100 µM | > 100 µM | > 100 µM | > 100 µM | > 100 µM | > 100 µM | > 100 µM | > 100 µM |  |  |  |  |  |  |  |  |  |  |
| NC1=NN(c2ccccc2)C(=O)C1/C(=N\NC(=O)c1cc2ccccc2cc1O)C(=O)Nc1nc([N+](=O)[O-])cs1 (centres undefined) | > 100 µM | > 74.1 µM | > 86.6 µM | > 82.3 µM | > 100 µM | 99 µM | 37.9 µM | > 100 µM | > 73.6 µM |  |  |  |  |  |  |  |  |  |  |
| O=C(c1ccco1)c1ccccc1C(=O)c1ccco1 | > 100 µM | > 100 µM | > 100 µM | > 100 µM | > 100 µM | > 100 µM | > 100 µM | > 100 µM | > 100 µM |  |  |  |  |  |  |  |  |  |  |
